In PubChem BioAssay (NCI):
“And” between values parts separate entries of the source, which are not always exact repeats. Identical values can stand only once.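 Cultured in 96-well plates, cells were exposed to test compound for 48 hours across five concentrations. GI50: concentration for 50% inhibition of growth. TGI marks complete inhibition of growth.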

Assays:
Experiment in all cases: inhibition of tumour cell growth, NCI panel, 48 h
DU-145 prostate = tested on: DU-145 prostate
HCT-116 colon = tested on: HCT-116 colon
HT29 colon = tested on: HT29 colon
IGROV1 ovarian = tested on: IGROV1 ovarian
M14 melanoma = tested on: M14 melanoma
MCF7 breast = tested on: MCF7 breast
RXF 393 renal = tested on: RXF 393 renal
SNB-19 CNS = tested on: SNB-19 CNS
T-47D breast = tested on: T-47D breast
UO-31 renal = tested on: UO-31 renal

Structure (SMILES)	GI50 (DU-145 prostate)	TGI (DU-145 prostate)	GI50 (HCT-116 colon)	TGI (HCT-116 colon)	GI50 (HT29 colon)	TGI (HT29 colon)	GI50 (IGROV1 ovarian)	TGI (IGROV1 ovarian)	GI50 (M14 melanoma)	TGI (M14 melanoma)	GI50 (MCF7 breast)	TGI (MCF7 breast)	GI50 (RXF 393 renal)	TGI (RXF 393 renal)	GI50 (SNB-19 CNS)	TGI (SNB-19 CNS)	GI50 (T-47D breast)	TGI (T-47D breast)	GI50 (UO-31 renal)	TGI (UO-31 renal)
O=C(CSSCC(=O)c1ccc(Cl)cc1)c1ccc(Cl)cc1	4.77 µM	91.3 µM	3.79 µM	14.8 µM	3.42 µM	17 µM	5.83 µM	26.6 µM	5.59 µM	22.1 µM	3.76 µM	17.8 µM	4.49 µM	14.7 µM	4.94 µM	40.3 µM	8.66 µM	45.2 µM	3.48 µM	17.5 µM
CCC/C=C/C=C/C(=O)OC1/C(=C/C(=O)OC)CC2CC(C(C)O)OC(=O)CC(O)CC3CC(OC(C)=O)C(C)(C)C(O)(CC4C/C(=C/C(=O)OC)CC(/C=C/C(C)(C)C1(O)O2)O4)O3 (stereo not drawn)	> 11 µM	> 12.5 µM	> 10.9 µM and 5.2 µM and > 12.5 µM	> 10.9 µM and 11 µM and > 12.5 µM	> 10.9 µM and 5.12 µM and > 12.5 µM	> 10.9 µM and 10.8 µM and > 12.5 µM	> 10.9 µM and 5.09 µM and > 12.5 µM	> 10.9 µM and 6.06 µM and > 12.5 µM	–	> 11 µM	> 10.9 µM and 5.88 µM and > 12.5 µM	> 10.9 µM and 11 µM and > 12.5 µM	10.6 µM and 5.25 µM and > 12.5 µM	10.9 µM and > 12.5 µM	> 11 µM	> 12.5 µM	> 12.5 µM	11 µM and > 12.5 µM	> 10.9 µM and 2.48 µM and > 12.5 µM	> 10.9 µM and 5.23 µM and > 12.5 µM
COc1ccc(C2=C(c3ccc(OC)cc3)C(=O)OC2)cc1	2.38 µM	> 46.6 µM	1.97 µM	11.8 µM	0.437 µM	> 100 µM	5.03 µM	> 100 µM	1.64 µM	12.4 µM	0.492 µM	16.2 µM	1.05 µM	–	2.34 µM	> 100 µM	8.89 µM	> 65.6 µM	3.18 µM	> 43.5 µM
O=[N+]([O-])c1ccc(Sc2cccc[n+]2[O-])c2nonc12	3.55 µM	13.1 µM	1.4 µM	12.5 µM	3.4 µM	29.4 µM	3.21 µM	14.5 µM	4.32 µM	16.4 µM	1.77 µM	10.8 µM	2.12 µM	6.32 µM	17.1 µM	> 100 µM	1.69 µM	6.5 µM	5.24 µM	17.4 µM
CCc1nc(N)nc(N)c1C#CC(C)c1ccc(-c2ccncc2)cc1Cl (stereo not drawn)	0.0242 µM and 0.0658 µM	5.01 µM and 13.7 µM	< 0.005 µM	2.77 µM and 13 µM	0.00589 µM and 0.012 µM	5.82 µM and 2.45 µM	< 0.005 µM and 0.0323 µM	6.71 µM and 19.1 µM	< 0.005 µM and 0.0121 µM	1.61 µM and 10.3 µM	0.0144 µM and 0.0328 µM	4.31 µM and 12.1 µM	0.141 µM and 0.312 µM	2.12 µM and 7.44 µM	0.0394 µM and 0.0796 µM	6.69 µM and 15.2 µM	0.0896 µM and 0.675 µM	2.2 µM and 13.6 µM	0.0227 µM and 0.073 µM	1.47 µM and 13.5 µM
C[C@H]1C[C@@H](n2c(Nc3ccc(OC(F)(F)F)cc3)nc3cc(CCC(=O)O)ccc32)CC(C)(C)C1	13.8 µM	27.2 µM	5.04 µM	18.5 µM	14.6 µM	30.9 µM	12.6 µM	28.7 µM	7.09 µM	25 µM	6.29 µM	22.6 µM	11.3 µM	25.2 µM	12.1 µM	31.2 µM	14.3 µM	44.5 µM	9.38 µM	21.5 µM
N#CC1=C(N)NC(=O)C(C#N)C12Nc1ccccc1S2 (stereo not drawn)	> 100 µM	> 100 µM	59.4 µM	> 100 µM	> 100 µM	> 100 µM	18 µM	88.4 µM	87.9 µM	> 100 µM	32.7 µM	> 100 µM	20.4 µM	> 100 µM	90.5 µM	> 100 µM	> 100 µM	> 100 µM	> 100 µM	> 100 µM
O=C(Nc1cc(Cl)c(I)c(Cl)c1)C(F)(F)F	–	> 100 µM	–	71.2 µM	–	37.4 µM	–	> 100 µM	–	60.3 µM	–	> 100 µM	–	34.5 µM	–	> 100 µM	–	97.6 µM	–	73.7 µM
O=C(O)CCCN1C(=O)/C(=C/C(Cl)=C/c2ccccc2)SC1=S	1.79 µM	4.39 µM	1.13 µM	4 µM	2.85 µM	10.6 µM	2.07 µM	6.04 µM	1.81 µM	5.12 µM	0.6 µM	11.4 µM	1.36 µM	2.78 µM	2.78 µM	10.9 µM	1.89 µM	5.38 µM	1.07 µM	2.48 µM
O=[N+]([O-])c1ccccc1/C=N\NC(=S)N/N=C/c1ccccc1[N+](=O)[O-]	5.34 µM	38.2 µM	3.78 µM	> 100 µM	4.04 µM	> 100 µM	3.67 µM	> 100 µM	3.76 µM	> 100 µM	3.12 µM	> 100 µM	11.6 µM	> 100 µM	6.71 µM	> 100 µM	4.93 µM	> 100 µM	5.66 µM	87.3 µM
NCC(=O)Nc1ccc(Cl)cc1C(=O)c1ccc[nH]1	–	> 100 µM	–	> 100 µM	–	> 100 µM	–	> 100 µM	–	> 100 µM	–	> 100 µM	–	> 100 µM	–	> 100 µM	–	> 100 µM	–	> 100 µM
COc1cc(/C=C/C(=O)c2c(C)n([O-])c3ccccc3[n+]2=O)cc(OC)c1OC	2.17 µM	13.5 µM	2.56 µM	13.8 µM	10.7 µM	22.9 µM	3.99 µM	15.6 µM	5.28 µM	18.8 µM	3.18 µM	13.4 µM	5.85 µM	20.4 µM	10.5 µM	23.3 µM	8.71 µM	28.7 µM	4.5 µM	17.5 µM
CN1CCN(C2=C(Cl)C(=O)c3ccccc3C2=O)CC1	1.74 µM	3.11 µM	1.42 µM	2.75 µM	1.94 µM	3.7 µM	1.88 µM	4.32 µM	1.78 µM	3.23 µM	1.45 µM	3.16 µM	1.59 µM	2.95 µM	4.08 µM	15.3 µM	0.789 µM	2.73 µM	1.22 µM	2.63 µM
